Read-outs that look alike come from different tables or passages of the source.
Legend:
[1] = target: T1, WT HIV-1 RT (BH10) (Human immunodeficiency virus type 1 group M subtype B, UniProt P03366); test: Inhibition constants under steady-state nucleotide incorporation conditions; format: biochemical
T1 construct: His6 (C); made in house; host or cells: E. coli XL1 Blue
Procedure: (§1) RTs were expressed in E. coli XL1 Blue and purified as p66/p51 heterodimers by ionic exchange, followed by immobilized metal affinity chromatography on Ni^2+-nitriloacetic acid-agarose. The p66 subunit was obtained with a His6 tag at its C-terminal end to facilitate its purification by metal affinity chromatography. Purity of the enzymes was assessed by SDS-polyacrylamide gel electrophoresis and RT concentrations were determined by active site titration as described.
(§2) Nucleotide incorporation reactions under steady-state conditions were carried out as previously described. However, in the preincubation buffer, active RT and template-primers D38/25PGA or D38T/25PGA were present at concentrations of 7–20 nM and 60 nM, respectively. Elongation rates were determined with dTTP concentrations ranging from 0.05 to 20 μM or with dATP concentrations ranging from 12 nM to 10 μM, using reaction volumes of 20 μl. Catalytic constants kcat and Km were determined after fitting the elongation data to the Michaelis–Menten equation as described. Inhibition constants (Ki) for AZTTP and tenofovir-DP were determined under the conditions used for obtaining the catalytic constants of dTTP and dATP incorporation, respectively. In order to distinguish between dTTP and AZTTP, elongation reactions were carried out under conditions that allowed the incorporation of two nucleotides (i.e. T at position +1 and A at position +2). For this purpose dATP was supplied at 1 μM in all assays. The competition between tenofovir-DP and dATP was analyzed with template-primer D38T/25PGA. Assays were carried out with variable concentrations of dATP (as indicated above) and 2 μM dTTP to facilitate further extension of the primer when the inhibitor was not incorporated at position +1 of the DNA primer. Data were analyzed by using Lineweaver-Burk plots. Nucleotide incorporation reactions under pre-steady-state conditions were carried out with template-primer D38/25PGA, as described.

[2] = target: T2, HIV-1 RT M41L/L210W/T215Y/R284K (Human immunodeficiency virus type 1 group M subtype B, UniProt P03366, L809W/M640L/R883K/T814Y); test: as above; format: biochemical
T2 construct: His6 (C); made in house; host or cells: E. coli XL1 Blue
Procedure: as §1, §2

[3] = target: T3, HIV-1 RT M41L/L210W/T215Y (Human immunodeficiency virus type 1 group M subtype B, UniProt P03366, L809W/M640L/T814Y); test: as above; format: biochemical
T3 construct: His6 (C); made in house; host or cells: E. coli XL1 Blue
Procedure: as §1, §2

[4] = target: T4, HIV-1 RT R284K (Human immunodeficiency virus type 1 group M subtype B, UniProt P03366, R883K); test: Kinetics of ATP-dependent excision from DNA/DNA template-primers (single turnover); format: biochemical; settings: R284K RT 210 nM, 3.2 mM ATP, terminated 26-mer primer on 38-nt DNA template 30 nM
T4 construct: His6 (C); made in house; host or cells: E. coli XL1 Blue
Procedure: (§3) The primer 25PGA was blocked at its 3´ end with d4TTP using terminal deoxynucleotidyltransferase (Roche), and excess nucleotides were eliminated by repeated passage through a mini Quick Spin column (Roche). The blocked primer was then labeled with [γ-^32P]ATP and T4 polynucleotide kinase and annealed to the DNA template D38, in order to obtain the template-primer D38/25PGA^d4T, used in the excision reactions. […] For this purpose, we preincubated the template-primer D38/^32P]25PGA (4.6 μM) with HIV-1BH10 RT (4 μM) in 65 μl of 50 mM Hepes pH 7.0 buffer, containing 15 mM NaCl, 15 mM magnesium acetate, 130 mM potassium acetate, 1 mM dithiothreitol, and 5% polyethylene glycol for 10 minutes at 37°C. Then, 35 μl of 6 mM AZTTP (diluted in the preincubation buffer) were added and incubated for another 30 minutes at 37°C to ensure that the primer was blocked completely. The RT was inactivated by heating the mixture for 10 minutes at 90°C. After slowly cooling the sample at room temperature, it was passaged several times through a mini Quick Spin column (Roche) to eliminate the free AZTTP. […] The excision of d4T monophosphate (d4TMP) from D38/25PGA^d4T was determined under single turnover conditions, as previously described.

[5] = target: T5, WT HIV-1 RT (Human immunodeficiency virus type 1 group M subtype B, UniProt P03366); format: biochemical
T5 construct: His6 (C); made in house; host or cells: E. coli XL1 Blue
Procedure: as §3

[6] = target: T2, HIV-1 RT M41L/L210W/T215Y/R284K; format: biochemical; settings: M41L/L210W/T215Y/R284K RT 210 nM, 3.2 mM ATP, terminated 26-mer primer on 38-nt DNA template 30 nM
Procedure: as §3

[7] = target: T3, HIV-1 RT M41L/L210W/T215Y; format: biochemical; settings: M41L/L210W/T215Y RT 210 nM, 3.2 mM ATP, terminated 26-mer primer on 38-nt DNA template 30 nM
Procedure: as §3

[8] = tested on: wild-type HXB2 virus carrying the RT sequence of BH10; test: Phenotypic drug susceptibility of recombinant HIV-1 in MT-4 cells (tetrazolium-based colorimetric method); format: cell-based; settings: average ± SD of at least three tests
Procedure: (§4) Site-directed mutagenesis was carried out with the Quik-Change Site-Directed Mutagenesis kit (Stratagene) by following the manufacturer’s instructions, and using plasmids p66RTB [64] or p66RTB(LY) as templates. The plasmid p66RTB contains the nucleotide sequence encoding for the 66-kDa subunit of HIV-1BH10 RT, and p66RTB(LY) encodes a p66 derivative with thymidine analogue resistance mutations M41L and T215Y. […] All introduced mutations were confirmed by DNA sequencing. Recombinant HIV-1 was obtained as previously described. […] MT-4 cells were used to propagate the recombinant virus. The nucleotide sequence of the RT-coding region was fully determined in order to check for reversions or undesired mutations. MT-4 cells and the deleted HXB2-D clone were obtained from the AIDS Reagent Program (Medical Research Council).
(§5) Viable cells at different drug concentrations were quantified with a tetrazolium-based colorimetric method. Replication kinetics of wild-type and mutant viruses were assayed by infecting peripheral blood mononuclear cells (PBMCs) (mixed from two healthy donors), previously stimulated with phytohemagglutinin and interleukin 2 [26]. In these assays, viral replication rates were obtained from the amounts of HIV-1 p24^Gag antigen produced during the exponential phase of viral growth, as described previously. Growth competition assays in MT-4 cells were carried out as previously described, in the absence and in the presence of tenofovir disoproxil fumarate at concentrations ranging from 5 to 80 nM. A multiplicity of infection of 0.001 was used and competing viruses were mixed at a 50:50 ratio. RT inhibitors were obtained from the NIH AIDS Research and Reference Reagent Program.

[9] = tested on: HIV-1 construct with RT M41L/L210W/T215Y; test: as above; format: cell-based
Procedure: as §4, §5

[10] = tested on: HIV-1 construct with RT M41L/L210W/T215Y/R284K; test: as above; format: cell-based
Procedure: as §4, §5

[11] = tested on: HIV-1 construct with RT R284K; test: as above; format: cell-based
Procedure: as §4, §5

[12] = target: T1, WT HIV-1 RT (BH10); test: Steady-state kinetics of nucleotide incorporation; format: biochemical; settings: D38/25PGA for dTTP, D38T/25PGA for dATP
Procedure: as §1, §2

[13] = target: T2, HIV-1 RT M41L/L210W/T215Y/R284K; test: Steady-state kinetics of nucleotide incorporation; format: biochemical; settings: D38/25PGA for dTTP, D38T/25PGA for dATP
Procedure: as §1, §2

[14] = target: T3, HIV-1 RT M41L/L210W/T215Y; test: Steady-state kinetics of nucleotide incorporation; format: biochemical; settings: D38/25PGA for dTTP, D38T/25PGA for dATP
Procedure: as §1, §2

[15] = target: T2, HIV-1 RT M41L/L210W/T215Y/R284K; test: Single-nucleotide incorporation under pre-steady-state conditions; format: biochemical; settings: D38/25PGA, 80 μM dTTP
Procedure: as §2, with “Nucleotide incorporation reactions under pre-steady-state conditions were carried out with template-primer D38/25PGA, as described.” left out

[16] = target: T3, HIV-1 RT M41L/L210W/T215Y; test: as above; format: biochemical; settings: D38/25PGA, 80 μM dTTP
Procedure: as §2, with “Nucleotide incorporation reactions under pre-steady-state conditions were carried out with template-primer D38/25PGA, as described.” left out

[17] = Human immunodeficiency virus 1, HXB2, MT4, WT virus
[18] = Human immunodeficiency virus 1, MT4, average ± SD of at least three tests

Work on `CC(Cn1cnc2c(N)ncnc21)OCP(=O)(O)OP(=O)(O)OP(=O)(O)O` (stereo in doubt) [Tenofovir-DP, tenofovir diphosphate] yielded a Ki ([1]; competition with dATP, template-primer D38T/25PGA, read-out: Ki(Tenofovir-DP)) of 3590 ± 260 nM, a Ki ([2]; M41L/L210W/T215Y/R284K RT, competition with dATP, template-primer D38T/25PGA, read-out: Ki(Tenofovir-DP)) of 2540 ± 550 nM and a Ki ([3]; M41L/L210W/T215Y RT, competition with dATP, template-primer D38T/25PGA, read-out: Ki(Tenofovir-DP)) of 2630 ± 640 nM.

In the case of `Cc1cn([C@H]2C[C@H](N=[N+]=[N-])[C@@H](COP(=O)(O)O)O2)c(=O)[nH]c1=O` [AZTMP], the “kobs of ATP-dependent excision reaction” value [4] is reported as 0.00242 ± 0.000122 min⁻¹, the “kobs of ATP-dependent excision reaction” value ([5]; WT RT 210 nM, 3.2 mM ATP, terminated 26-mer primer on 38-nt DNA template 30 nM) is reported as 0.00282 ± 0.000148 min⁻¹ and the “kobs of ATP-dependent excision reaction” value [6] is reported as 0.0364 ± 0.00308 min⁻¹. For the same compound, the “kobs of ATP-dependent excision reaction” value [7] was 0.0469 ± 0.00169 min⁻¹.

For `Cc1cn([C@H]2C[C@H](N=[N+]=[N-])[C@@H](CO[P@](=O)(O)O[P@](=O)(O)OP(=O)(O)O)O2)c(=O)[nH]c1=O` [AZTTP], the Ki ([1]; competition with dTTP, template-primer D38/25PGA, read-out: Ki(AZTTP)) was 2100 ± 380 nM, the Ki [2] was 2320 ± 740 nM and the Ki [3] was 2180 ± 170 nM.

With `Nc1nc(=O)n([C@@H]2CS[C@H](CO)O2)cc1F` [Emtricitabine] the IC50 [8, 17] was 144 ± 69.9 nM, the “fold increase in IC50 relative to the wild-type HXB2 virus control” value [9] was 1.6 and the IC50 [9, 18] was 227 ± 113 nM. For the same compound, the “fold increase in IC50 relative to the wild-type HXB2 virus control” value [10] was 2.0, the IC50 [10, 18] was 295 ± 93.7 nM and the “fold increase in IC50 relative to the wild-type HXB2 virus control” value [11] was 0.7. It also gave an IC50 [11, 18] of 104 ± 81.5 nM.

`CC(C)OC(=O)OCOP(=O)(CO[C@H](C)Cn1cnc2c(N)ncnc21)OCOC(=O)OC(C)C.O=C(O)/C=C/C(=O)O` [Tenofovir, tenofovir disoproxil fumarate] was tested, and the IC50 ([8]; WT virus) was 6.7 ± 2.2 nM, the “fold increase in IC50 relative to the wild-type HXB2 virus control” value [9] was 1.6 and the IC50 ([9]; M41L/L210W/T215Y virus, average ± SD of at least three tests) was 11 ± 4.6 nM. The “fold increase in IC50 relative to the wild-type HXB2 virus control” value [10] was 2.7, the IC50 ([10]; M41L/L210W/T215Y/R284K virus, average ± SD of at least three tests) was 18.1 ± 4.4 nM and the “fold increase in IC50 relative to the wild-type HXB2 virus control” value [11] was 1.8. It also gave an IC50 ([11]; R284K virus, average ± SD of at least three tests) of 12.1 ± 5.3 nM.

For `Cc1cn([C@H]2C=C[C@@H](CO)O2)c(=O)[nH]c1=O` [d4T, 2´,3´-didehydro-2´,3´-dideoxythymidine], the IC50 [8, 17] was 276 ± 90.5 nM, the “fold increase in IC50 relative to the wild-type HXB2 virus control” value [9] was 0.8 and the IC50 [9, 18] was 217 ± 75.5 nM. For the same compound, the “fold increase in IC50 relative to the wild-type HXB2 virus control” value [10] was 1.0, the IC50 [10, 18] was 287 ± 84.5 nM and the “fold increase in IC50 relative to the wild-type HXB2 virus control” value [11] was 0.5. It also gave an IC50 [11, 18] of 130 ± 24.8 nM.

In the case of `Cc1cn([C@H]2C=C[C@@H](COP(=O)(O)O)O2)c(=O)[nH]c1=O` [d4TMP, d4T monophosphate], the “kobs of ATP-dependent excision reaction” value [4] is reported as 0.00262 ± 0.000142 min⁻¹, the “kobs of ATP-dependent excision reaction” value [5] is reported as 0.00337 ± 0.000193 min⁻¹ and the “kobs of ATP-dependent excision reaction” value [6] is reported as 0.037 ± 0.00229 min⁻¹. The “kobs of ATP-dependent excision reaction” value [7] was 0.0372 ± 0.00158 min⁻¹.

`Nc1ncnc2c1ncn2[C@H]1C[C@H](O)[C@@H](COP(=O)(O)OP(=O)(O)OP(=O)(O)O)O1` [dATP] was tested, and the Km [12] was 0.0258 ± 0.0067 µM, the kcat [12] was 0.0645 ± 0.0165 s⁻¹ and the Km [13] was 0.0159 ± 0.0025 µM. It also gave a kcat [13] of 0.1682 ± 0.0245 s⁻¹, a Km [14] of 0.0321 ± 0.0096 µM and a kcat [14] of 0.095 ± 0.0145 s⁻¹.

`Cc1cn([C@H]2C[C@H](O)[C@@H](COP(=O)(O)OP(=O)(O)OP(=O)(O)O)O2)c(=O)[nH]c1=O` [dTTP] was tested, and the Km [12] was 0.108 ± 0.0129 µM, the kcat [12] was 0.0523 ± 0.00917 s⁻¹ and the Km [13] was 0.184 ± 0.0061 µM. For the same compound, the kcat [13] was 0.0943 ± 0.00383 s⁻¹, the Km [14] was 0.117 ± 0.0219 µM and the kcat [14] was 0.0588 ± 0.0015 s⁻¹. For the same compound, the “nucleotide incorporation rate (kobs)” value [15] was 38.8 ± 9.4 s⁻¹ and the “nucleotide incorporation rate (kobs)” value [16] was 21.5 ± 4.4 s⁻¹.

Reference: publication PMC3468358, “Clinical, virological and biochemical evidence supporting the association of HIV-1 reverse transcriptase polymorphism R284K and thymidine analogue resistance mutations M41L, L210W and T215Y in patients failing tenofovir/emtricitabine therapy” (Retrovirology, 2012)
